We go through one compound from PMC11602988 (The Journal of Biological Chemistry, 2024).

The structures appear in SMILES notation. Substitutions are numbered along the chain they refer to.

Data set [1] concerns the target T1, OCT1 Phe244Ala variant (Homo sapiens, UniProt O15245, F244A).
T1 sequence (O15245 1-554 F244A): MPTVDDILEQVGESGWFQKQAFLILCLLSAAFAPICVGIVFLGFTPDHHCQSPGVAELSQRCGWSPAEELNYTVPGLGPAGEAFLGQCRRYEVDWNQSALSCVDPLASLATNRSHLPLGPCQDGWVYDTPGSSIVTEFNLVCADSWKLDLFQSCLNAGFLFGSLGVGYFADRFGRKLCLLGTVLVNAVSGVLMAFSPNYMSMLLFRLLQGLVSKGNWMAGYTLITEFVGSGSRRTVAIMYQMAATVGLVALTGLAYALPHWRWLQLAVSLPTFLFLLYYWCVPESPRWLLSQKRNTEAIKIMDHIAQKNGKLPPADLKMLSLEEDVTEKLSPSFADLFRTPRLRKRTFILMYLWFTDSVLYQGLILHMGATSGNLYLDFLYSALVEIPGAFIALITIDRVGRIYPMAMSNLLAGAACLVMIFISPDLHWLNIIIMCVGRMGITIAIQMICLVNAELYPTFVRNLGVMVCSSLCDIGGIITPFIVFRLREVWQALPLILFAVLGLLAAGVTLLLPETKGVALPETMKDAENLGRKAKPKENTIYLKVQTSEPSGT
Nature of the data set: Uptake screening (transport ratio over empty vector), HEK293 cells overexpressing OCT1 Phe244Ala variant.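 Further: stably transfected HEK293 cells, intracellular substrate quantified by HPLC-tandem mass spectrometry in cell lysates, uptake in HBSS+ buffer.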 Details: expressed in transfected cells. It is filed as cell-based.

The target in data set [2] is T1, OCT1 Phe244Ala variant. The experiment in a line: Concentration-dependent uptake kinetics, HEK293 cells overexpressing OCT1 Phe244Ala.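 Further: cells exposed to rising substrate concentrations in buffer, intracellular drug measured by HPLC-tandem mass spectrometry, quantified against a standard curve, uptake referenced to empty vector-transfected HEK293 controls.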
Experimental: (§1) All experiments were carried out using transporter-overexpressing HEK293 cells. […] Cells were cultivated in Dulbecco’s Modified Eagle’s medium supplemented with 10% fetal calf serum, 100 U/ml penicillin, and 100 μg/ml streptomycin. Cells were passaged twice a week and kept in culture for no longer than 30 passages.
(§2) For uptake studies, 300,000 HEK293 cells were plated in each well of 24-well plates precoated with poly-D-lysine 48 prior to the experiment. On the day of the experiment, cells were washed once with prewarmed to 37 °C HBSS+ (Hank’s balanced salt solution supplemented with 10 mM Hepes, both Sigma-Aldrich). […] Uptake was stopped by adding ice-cold HBSS+ and cells were washed twice with ice-cold buffer before cell lysis was done using 80% acetonitrile containing an appropriate internal standard for eventual mass spectrometry. Relative quantification was done by comparison of transporter-overexpressing cells to empty vector–transfected controls. For uptake kinetic experiments, cells were incubated with increasing concentrations of substrate dissolved in HBSS+. Absolute quantification was done later by comparison to a standard curve in lysis buffer with known concentration.
(§3) Intracellular drug concentrations were detected and quantified by HPLC coupled to mass spectrometry. […] Substance-specific conditions were used to adjust the retention times of the analytes.
(§4) Transport ratios were determined as relative fold-increase of the uptake in transporter-overexpressing cells over empty vector–transfected control cells. For transport kinetic experiments, absolute substrate quantification was done by signal comparison to a standard curve with known concentrations. Net uptake was then determined by subtracting the uptake into empty vector–transfected cells from transporter-overexpressing cells. […] Vmax defines the maximum transport velocity, Km refers to the substrate concentration required to reach half vmax. The intrinsic clearance Clint is the ratio of vmax over Km.
In data set [3] the target is T2, OCT1 WT (Homo sapiens, UniProt O15245).
T2 sequence (O15245 1-554): T1 sequence (O15245 1-554 F244A) with A244F
Nature of the data set: Uptake screening (transport ratio over empty vector), HEK293 cells overexpressing OCT1 WT.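 Further: intracellular substrate levels quantified by HPLC–tandem mass spectrometry after uptake in HBSS+ buffer at 37 °C, stable Flp-In HEK293 lines, fold change versus empty vector–transfected cells.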 It is filed as cell-based. Also on record: expressed in transfected cells. To be noted: uptake ratio of OCT1 WT-overexpressing HEK293 cells over empty vector.

Data set [4] addresses T2, OCT1 WT. Nature of the data set: Concentration-dependent uptake kinetics, HEK293 cells overexpressing OCT1 WT.
Experimental: as §1, §2, §3, §4
In data set [5] the target is T1, OCT1 Phe244Ala variant. The conditions noted are these: cited from earlier work.

The term Km denotes the concentration of substrate that gives half-maximal velocity. Regarding `CN(C)C(=N)N=C(N)N` [Metformin], the “Transport activity of Phe244Ala in % of WT activity” value in data set [1] (2.5 μM substrate, 2 min, Phe244Ala uptake relative to WT) is roughly 10%. For the same compound, the relative_Phe244Ala_uptake_in% in data set [1] (Phe244Ala uptake relative to OCT1 WT) came to 14.754%. Further, in data set [1] (uptake ratio of OCT1 Phe244Ala-overexpressing HEK293 cells over empty vector), the Mean_transport_ratio_Phe244Ala amounted to 1.869. The vmax in data set [2] (OCT1 Phe244Ala, HEK293, 2 min incubation, net uptake) is 4361 ± 1497 pmol × mg protein^−1 × min^−1; in data set [4] (OCT1 WT, HEK293, 2 min incubation, net uptake) it was 10,813 ± 2176 pmol × mg protein^−1 × min^−1. Moreover, the Clint in data set [2] (OCT1 Phe244Ala, ratio of vmax over Km) is given as 1.54 ± 2.02 ml × g Protein^−1 × min^−1; in data set [4] (OCT1 WT, ratio of vmax over Km) it was 3.71 ± 2.82 ml × g Protein^−1 × min^−1. Moreover, the Km at 2 min in data set [2] (human, HEK293 cells overexpressing OCT1 Phe244Ala) was found to be 2.83 ± 2.73 mM; in data set [4] (human, HEK293 cells overexpressing OCT1 WT) it was 2.91 ± 1.63 mM. The “Maximum transport capacity (vmax), Phe244Ala compared to WT” value in data set [2] (uptake kinetics, in words) was “reduced transport capacity”. Moreover, the Mean_transport_ratio_WT in data set [3] stood at 6.891. Further, the “Consequence of the Phe244Ala substitution on transport” value in data set [5] is “complete loss of transport activity”.
